# Where two headings read alike, the source gives them in different places.
# What was measured:
# [1] = Human Plasma Protein Binding (Test B); type: in vitro ADME; conditions: fraction unbound (fu)
# Summary of the method: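 Values given as % free (fu) in human plasma, using the method of Wernevik et al. (2020). For compounds tested more than once, the arithmetic mean is given.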
# [2] = Human Liver Microsomal Stability (Test C); type: in vitro ADME; conditions: for Test C Human Liver Microsomal Stability Clint: human liver microsomes; for microsomal CLint: human, liver microsomes
# Summary of the method: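 CLint (μl/min/mg protein) derived from compound depletion in human liver microsomes following a published standardized early-DMPK protocol; replicate determinations given as arithmetic mean.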
# [3] = Human Hepatocyte Stability (Test D); type: in vitro ADME; conditions: geometric mean if run multiple times; for Test D Human Hepatocyte Stability Clint: human hepatocytes; for hepatocyte CLint at 1 µM: human, cryopreserved pooled human hepatocytes (LiverPool 10-Donor)
# Summary of the method: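 Intrinsic clearance (μL/min/10^6 cells), derived as kV/N from the log-linear loss of parent compound. Compound incubated at 37 °C with cryopreserved pooled human hepatocytes, 0.25×10^6 cells in 0.25 mL L-15; dosing solution 100 μM in acetonitrile. Singlicate incubations, cassette LC-MS; repeats reported as geometric mean.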
# [4] = Rat Hepatocyte Stability (Test E); type: in vitro ADME; conditions: geometric mean if run multiple times; for Test E Rat Hepatocyte Stability Clint: rat hepatocytes; for hepatocyte CLint: rat, hepatocytes
# Summary of the method: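 Intrinsic clearance in rat hepatocytes, expressed as μl/min/10^6 cells, following the literature integrated DMPK panel method. Repeat determinations combined as geometric mean.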
# Solubility (Test F) = type: physicochemical; conditions: arithmetic mean if run multiple times
# Experimental: The assay was conducted according to the Solubility Assay described in pages 164-167 of Wernevik, J. et al., “A Fully Integrated Assay Panel for Early Drug Metabolism and Pharmacokinetics Profiling”, Assay and Drug Development Technologies, 2020, 18(4), 157-179. Data are reported in Table 36 as solubility ([…]. Where the assay was run multiple times for the same compound, the arithmetic mean is reported.
# human RXFP1 = biological target: T1, human RXFP1 (Homo sapiens, UniProt Q9HBX9); test: RXFP1 Hu cAMP (Test A); type: cell-based; design: expressed in transfected cells; host or cells: Jump-In T-REx CHO-K1 cells (ThermoFisher), induced with 10 ng/ml doxycycline for 24 h
# T1 sequence (Q9HBX9 1-757): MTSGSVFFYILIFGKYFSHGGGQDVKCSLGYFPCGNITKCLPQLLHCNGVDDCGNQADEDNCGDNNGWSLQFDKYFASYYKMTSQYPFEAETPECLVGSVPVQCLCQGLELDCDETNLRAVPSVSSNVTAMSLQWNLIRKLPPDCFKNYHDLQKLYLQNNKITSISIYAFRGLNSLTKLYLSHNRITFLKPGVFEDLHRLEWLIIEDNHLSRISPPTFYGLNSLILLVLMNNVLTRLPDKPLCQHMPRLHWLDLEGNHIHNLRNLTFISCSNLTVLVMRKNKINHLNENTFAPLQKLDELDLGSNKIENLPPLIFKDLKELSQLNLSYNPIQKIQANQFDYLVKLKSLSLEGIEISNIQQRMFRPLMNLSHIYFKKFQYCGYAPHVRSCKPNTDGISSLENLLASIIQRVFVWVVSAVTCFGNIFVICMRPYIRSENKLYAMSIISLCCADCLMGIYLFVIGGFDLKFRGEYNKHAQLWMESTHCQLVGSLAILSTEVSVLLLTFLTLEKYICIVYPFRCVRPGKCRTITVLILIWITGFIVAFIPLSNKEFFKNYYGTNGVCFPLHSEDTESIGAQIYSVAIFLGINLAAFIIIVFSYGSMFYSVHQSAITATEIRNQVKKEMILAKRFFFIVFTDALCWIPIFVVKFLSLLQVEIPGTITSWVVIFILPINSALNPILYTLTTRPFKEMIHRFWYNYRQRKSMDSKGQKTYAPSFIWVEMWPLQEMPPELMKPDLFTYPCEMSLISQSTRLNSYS
# Summary of the method: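 Competitive HTRF cAMP readout (2 h, room temperature) in CHO-K1 cells stably expressing human RXFP1, induced with 10 ng/ml doxycycline for 24 h; IBMX 0.5 mM final.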
# [5] = RXFP1 Hu cAMP, read-out: Test A EC50
SMILES,Test B Human Plasma Protein Binding (% free) [1],Test C Human Liver Microsomal Stability Clint [2],Test D Human Hepatocyte Stability Clint [3],Test E Rat Hepatocyte Stability Clint [4],solubility (Solubility (Test F)),Test A Sinf (human RXFP1; RXFP1 Hu cAMP),EC50 (human RXFP1; [5]),microsomal CLint [2],hepatocyte CLint at 1 µM [3],hepatocyte CLint [4],"EC50 (human RXFP1; Test A EC50, RXFP1 Hu cAMP)"
"COc1cc(C#N)c(O[C@H]2CC[C@@](C)(C(=O)O)CC2)cc1C(=O)N[C@H]1C2CCC(CC2)[C@H]1C(=O)NCC1(C)CCC1 (relative stereo) [Example 539, (1R,4s)-4-(2-Cyano-4-methoxy-5-(((2S*,3R*)-3-(((1-methylcyclobutyl)methyl)carbamoyl)bicyclo[2.2.2]octan-2-yl)carbamoyl)phenoxy)-1-methylcyclohexane-1-carboxylic acid]",3.2 % free,63 µL/min/mg,64 μL/min/10^6 cells,28 μL/min/10^6 cells,700 µM,102%,3.1 nM,–,–,–,–
COc1cc(F)c(-c2cccc(CC(=O)O)c2)cc1C(=O)N[C@H]1[C@@H](C(=O)Nc2cccc(S(=O)(=O)C(F)(F)F)c2)[C@@H]2C=C[C@H]1C2 (racemic) [Example 281],0.31 % free,–,–,–,11 µM,170%,870 nM,5.5 µL/min/mg,5 µL/min/1e6 cells,9.1 µL/min/1e6 cells,–
"COc1cc(F)c(O[C@H]2CC[C@@](C)(C(=O)O)CC2)cc1C(=O)Nc1cnccc1C(=O)NCC1(C)CCC1 [Example 150, (1s,4s)-4-(2-Fluoro-4-methoxy-5-((4-(((1-methylcyclobutyl)methyl)carbamoyl)pyridin-3-yl)carbamoyl)phenoxy)-1-methylcyclohexane-1-carboxylic acid]",1.8 % free,–,–,–,16 µM,95%,460 nM,< 3 µL/min/mg,4.9 µL/min/1e6 cells,39 µL/min/1e6 cells,–
"COc1cc(F)c(Cc2cn[nH]c2)cc1C(=O)N[C@@H]1[C@H]2CC[C@H](C2)[C@@H]1C(=O)Nc1cccc(S(=O)(=O)C(F)(F)F)c1 [Example 219, (1R,2S,3R,4S)-3-(5-((1H-Pyrazol-4-yl)methyl)-4-fluoro-2-methoxybenzamido)-N-(3-((trifluoromethyl)sulfonyl)phenyl)bicyclo[2.2.1]heptane-2-carboxamide]",0.19 % free,–,–,–,5 µM,113%,–,> 300 µL/min/mg,78 µL/min/1e6 cells,130 µL/min/1e6 cells,–
COc1cc(Cl)c(O[C@H]2CC[C@@](C)(C(=O)O)CC2)cc1C(=O)N[C@@H]1[C@H]2CC[C@H](C2)[C@@H]1C(=O)NC12CC(F)(C1)C2 [Example 411],1.8 % free,–,–,–,710 µM,108%,24 nM,7.9 µL/min/mg,2.1 µL/min/1e6 cells,17 µL/min/1e6 cells,–
"COc1cc(C#N)c(O[C@H]2CC[C@@](C)(C(=O)O)CC2)cc1C(=O)NC1C2C=CC(CC2)C1C(=O)NCC1(C)CCC1 (single isomer, unassigned) [Example 540, (1R,4s)-4-(2-Cyano-4-methoxy-5-(((1R*,2S*,3R*,4S*)-3-(((1-methylcyclobutyl)methyl)carbamoyl)bicyclo[2.2.2]oct-5-en-2-yl)carbamoyl)phenoxy)-1-methylcyclohexane-1-carboxylic acid]",6 % free,–,–,–,1000 µM,104%,20 nM,20 µL/min/mg,8.5 µL/min/1e6 cells,19 µL/min/1e6 cells,–
COc1cc(F)c(-c2cnn(CCC(=O)O)c2)cc1C(=O)N[C@@H]1[C@H]2CC[C@H](C2)[C@@H]1C(=O)Nc1cccc(S(=O)(=O)C(F)(F)F)c1 [Example 255],2 % free,–,–,–,1000 µM,101%,550 nM,26 µL/min/mg,13 µL/min/1e6 cells,12 µL/min/1e6 cells,–
"COc1cc(F)c(O[C@H]2CC[C@@H](C(=O)O)CC2)cc1C(=O)NC1=C(C(=O)Nc2ccc(F)c(C(F)(F)F)c2)CCC1 [Example 214, (1s,4s)-4-(2-Fluoro-5-((2-((4-fluoro-3-(trifluoromethyl)phenyl)carbamoyl)cyclopent-1-en-1-yl)carbamoyl)-4-methoxyphenoxy)cyclohexane-1-carboxylic acid]",0.090 % free,–,–,–,400 µM,115%,–,< 3 µL/min/mg,2.3 µL/min/1e6 cells,5.3 µL/min/1e6 cells,–
"COc1cc(C#N)c(O[C@H]2CC[C@@](C)(C(=O)O)CC2)cc1C(=O)N[C@@H]1[C@@H]2CC[C@@H](C2)[C@@H]1C(=O)NCC(C)(C)C(F)(F)F [Example 502, (1S,4s)-4-(2-Cyano-4-methoxy-5-(((1R,2R,3S,4S)-3-((3,3,3-trifluoro-2,2-dimethylpropyl)carbamoyl)bicyclo[2.2.1]heptan-2-yl)carbamoyl)phenoxy)-1-methylcyclohexane-1-carboxylic acid]",4 % free,–,–,–,910 µM,106%,8.5 nM,< 4.5 µL/min/mg,5.3 µL/min/1e6 cells,7.2 µL/min/1e6 cells,–
COc1cc(F)c(O[C@H]2CC[C@@H](C(=O)O)CC2)cc1C(=O)N[C@@H]1CC(F)(F)C[C@@H]1C(=O)Nc1ccc(F)c(C(F)(F)F)c1 (racemic) [Example 493],1.3 % free,–,–,–,38 µM,108%,420 nM,< 3 µL/min/mg,2.4 µL/min/1e6 cells,4 µL/min/1e6 cells,–
CC1(CNC(=O)[C@H]2[C@@H]3CC[C@@H](C3)[C@H]2NC(=O)c2cc(O[C@H]3CC[C@@](C)(C(=O)O)CC3)c(C#N)cc2F)CCC1 [Example 401],2.7 % free,–,–,–,1000 µM,115%,–,16 µL/min/mg,5.4 µL/min/1e6 cells,17 µL/min/1e6 cells,49 nM
"COc1cc(F)c(O[C@H]2CC[C@@](C)(C(N)=O)CC2)cc1C(=O)N[C@@H]1[C@H]2CC[C@H](C2)[C@@H]1C(=O)NCC1(F)CCOCC1 [Example 147, (1R,2S,3R,4S)-3-(5-(((1s,4S)-4-Carbamoyl-4-methylcyclohexyl)oxy)-4-fluoro-2-methoxybenzamido)-N-((4-fluorotetrahydro-2H-pyran-4-yl)methyl)bicyclo-[2.2.1]heptane-2-carboxamide]",36 % free,88 µL/min/mg,6.1 μL/min/10^6 cells,67 μL/min/10^6 cells,1000 µM,111%,> 4200 nM,–,–,–,–
"COc1cc(F)c(O[C@H]2CC[C@@](C)(C(=O)O)CC2)cc1C(=O)N[C@@H]1[C@H]2CC[C@H](C2)[C@@H]1C(=O)NCC(C)(C)C [Example 35, (1S,4s)-4-(2-Fluoro-4-methoxy-5-(((1S,2R,3S,4R)-3-(neopentylcarbamoyl)bicyclo[2.2.1]heptan-2-yl)carbamoyl)phenoxy)-1-methylcyclohexane-1-carboxylic acid]",8.2 % free,–,–,–,> 730 µM,–,–,14 µL/min/mg,2.7 µL/min/1e6 cells,23 µL/min/1e6 cells,39 nM
